This is an account of results in PMC5054527, “Mechanism of high affinity inhibition of the human urate transporter URAT1” (Scientific Reports, 2016).

Molecules are shown by their SMILES.

What all share (assay): URAT1 uric acid transport activity assay
What all share (assay type): cell-based, human/rat

One assay concerns the target T1, h-r TM11 URAT1 chimera (Homo sapiens, UniProt Q96S37, I481M/M474V).
T1 construct: expressed in transfected cells; host or cells: HEK-293T

In another assay the target is T2, h-r TM5-C URAT1 chimera (Homo sapiens, UniProt Q96S37, A249G/A250S/G246V/H245Q).
T2 construct: expressed in transfected cells; host or cells: HEK-293T
Particulars: HEPES pH 7.3, 100 μM 14C-uric acid.

The target in a further assay is T3, h-r TM6 URAT1 chimera (Homo sapiens, UniProt Q96S37, C272F/L274V).
T3 construct: expressed in transfected cells; host or cells: HEK-293T
Particulars: HEPES pH 7.3, 100 μM 14C-uric acid.

A further assay deals with T4, h-r TM8 URAT1 chimera (Homo sapiens, UniProt Q96S37, A392V/A396S/F384L/H402R/I390L/M383A/P407L/V387I).
T4 construct: expressed in transfected cells; host or cells: HEK-293T
To be noted: HEPES pH 7.3, 100 μM 14C-uric acid.

The target in another assay is T5, h-r TM9-N URAT1 chimera (Homo sapiens, UniProt Q96S37, A411S/A416P/L414V).
T5 construct: expressed in transfected cells; host or cells: HEK-293T
Particulars: HEPES pH 7.3, 100 μM 14C-uric acid.

T1 sequence (Q96S37 whole entry M474V/I481M): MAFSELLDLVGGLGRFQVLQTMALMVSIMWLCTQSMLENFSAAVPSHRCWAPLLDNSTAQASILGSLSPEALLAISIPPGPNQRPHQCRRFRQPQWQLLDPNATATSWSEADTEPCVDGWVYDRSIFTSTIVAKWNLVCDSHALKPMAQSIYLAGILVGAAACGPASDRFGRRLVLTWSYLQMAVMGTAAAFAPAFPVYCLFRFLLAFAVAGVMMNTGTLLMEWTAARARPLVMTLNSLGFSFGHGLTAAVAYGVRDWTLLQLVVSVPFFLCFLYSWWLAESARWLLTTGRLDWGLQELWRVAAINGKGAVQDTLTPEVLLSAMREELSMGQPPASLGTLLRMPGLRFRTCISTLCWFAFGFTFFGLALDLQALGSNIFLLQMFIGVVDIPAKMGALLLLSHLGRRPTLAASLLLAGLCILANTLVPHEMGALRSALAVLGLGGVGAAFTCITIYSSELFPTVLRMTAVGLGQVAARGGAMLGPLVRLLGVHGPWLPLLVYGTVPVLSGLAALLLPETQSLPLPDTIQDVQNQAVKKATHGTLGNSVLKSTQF
T3 sequence (Q96S37 whole entry C272F/L274V): as the sequence (Q96S37 whole entry M474V/I481M) above, with C272F, L274V, V474M, M481I counted along it
T2 sequence (Q96S37 whole entry H245Q/G246V/A249G/A250S): as the sequence (Q96S37 whole entry M474V/I481M) above, with H245Q, G246V, A249G, A250S, V474M, M481I counted along it
T4 sequence (Q96S37 whole entry M383A/F384L/V387I/I390L/A392V/A396S/H402R/P407L): as the sequence (Q96S37 whole entry M474V/I481M) above, with M383A, F384L, V387I, I390L, A392V, A396S, H402R, P407L, V474M, M481I counted along it
T5 sequence (Q96S37 whole entry A411S/L414V/A416P): as the sequence (Q96S37 whole entry M474V/I481M) above, with A411S, L414V, A416P, V474M, M481I counted along it

With `O=C1C(CC[S+]([O-])c2ccccc2)C(=O)N(c2ccccc2)N1c1ccccc1` (stereo not drawn) [sulfinpyrazone], the “fold reduced affinity of h-r TM11 compared to hURAT1” value at h-r TM11 URAT1 chimera (from IC50 values) is given as 3 fold. In addition, the IC50 came to 100 ± 15 µM at h-r TM11 URAT1 chimera (h-r TM11, HEPES pH 7.3, 100 μM 14C-uric acid); 34 ± 4 µM at h-r TM5-C URAT1 chimera; 30 ± 4 µM at h-r TM6 URAT1 chimera; 29 ± 13 µM at h-r TM8 URAT1 chimera; 36 ± 17 µM against h-r TM9-N URAT1 chimera.

As a reminder, the IC50 is the midpoint of a concentration-inhibition curve. High values mean lower potency, low ones higher potency.
